Results: patent US20220306659A1, “COMPOUND INHIBITING AND INDUCING DEGRADATION OF EGFR AND ALK” (BEIJING TIDE PHARMACEUTICAL CO., LTD., priority 2019, published 2022)

Target: Ba/F3(EGFR^Del19/T790M/C797S) cells (Homo sapiens, UniProt P00533, DEL746-750/T790M/C797S, cells depend on it)
Assay: Assay of activity on Ba/F3 cells (CTG, 72 h)
Type: cell-based
Details: read-out: IC50 (nM) Ba/F3 (EGFR^Del19/T790M/C797S)
Protocol: (2) A compound stock solution was prepared, and then diluted 3× to obtain a compound dilution. 30 nL of the compound dilution was added to a 384-well plate by Echo (Labcyte, Echo550). The cells were incubated in an incubator at 37° C. and 5% CO2 for 72 h.
The percent inhibition rate (% inhibition) was calculated by the following formula
LUMcmpd: Luminescence value of assay compound.
LUMpositive: Average LUM value of positive drug at a concentration of 10 μM.
LUMvehicle. Average LUM value of negative control group without drug treatment.
The nonlinear regression curve (dose response-variable slope) between the value of inhibition rate (%) and the logarithm of compound concentration was fitted with graphpad prism 8.0, the effect dose curve of compound was drawn, and the IC50 value was calculated.
Y=Bottom+(Top−Bottom)/(1+1^((LogIC50−X)*HillSlope))
X-axis: logarithm of compound concentration; Y axis: inhibition rate ([…]).

Sequence of Ba/F3(EGFR^Del19/T790M/C797S) cells (P00533 with tags, fused parts or gaps DEL746-750/T790M/C797S): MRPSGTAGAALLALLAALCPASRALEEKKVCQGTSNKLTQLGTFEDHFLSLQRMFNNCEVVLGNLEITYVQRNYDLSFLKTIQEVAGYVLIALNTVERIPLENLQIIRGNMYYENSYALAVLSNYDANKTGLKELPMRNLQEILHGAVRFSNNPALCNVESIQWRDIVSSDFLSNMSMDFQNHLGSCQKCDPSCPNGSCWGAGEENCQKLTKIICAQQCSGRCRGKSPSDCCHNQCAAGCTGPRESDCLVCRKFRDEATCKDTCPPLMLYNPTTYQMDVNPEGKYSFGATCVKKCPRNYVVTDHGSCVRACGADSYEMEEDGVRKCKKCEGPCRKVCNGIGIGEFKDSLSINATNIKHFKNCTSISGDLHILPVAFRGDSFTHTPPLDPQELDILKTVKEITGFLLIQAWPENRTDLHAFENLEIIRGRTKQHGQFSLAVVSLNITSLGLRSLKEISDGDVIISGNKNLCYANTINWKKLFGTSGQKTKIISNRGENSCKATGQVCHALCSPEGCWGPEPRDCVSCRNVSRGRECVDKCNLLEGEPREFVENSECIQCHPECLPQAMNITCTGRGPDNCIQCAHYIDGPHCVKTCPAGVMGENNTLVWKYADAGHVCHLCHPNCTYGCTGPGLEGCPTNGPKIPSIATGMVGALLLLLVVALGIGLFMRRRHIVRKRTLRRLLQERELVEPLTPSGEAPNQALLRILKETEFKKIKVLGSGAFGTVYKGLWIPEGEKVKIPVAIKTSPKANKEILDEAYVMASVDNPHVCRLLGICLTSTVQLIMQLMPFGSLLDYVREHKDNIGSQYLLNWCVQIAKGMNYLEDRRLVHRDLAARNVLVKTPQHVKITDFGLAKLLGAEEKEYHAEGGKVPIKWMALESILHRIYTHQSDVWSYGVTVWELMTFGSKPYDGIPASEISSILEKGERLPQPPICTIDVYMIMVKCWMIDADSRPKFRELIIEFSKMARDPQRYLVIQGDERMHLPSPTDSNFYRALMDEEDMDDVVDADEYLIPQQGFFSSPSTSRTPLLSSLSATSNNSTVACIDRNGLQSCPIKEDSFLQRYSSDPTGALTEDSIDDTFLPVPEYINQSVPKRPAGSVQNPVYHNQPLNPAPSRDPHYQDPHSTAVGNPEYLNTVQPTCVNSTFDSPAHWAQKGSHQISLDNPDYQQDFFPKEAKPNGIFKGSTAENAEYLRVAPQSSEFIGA

Row | GI50 [nM] | Compound
1 | 1 to 100 | COc1cc(N2CCC(N3CCN(CCCC#Cc4cccc5c4CN(C4CCC(=O)NC4=O)C5=O)CC3)CC2)ccc1Nc1ncc(Cl)c(Nc2ccccc2P(C)(C)=O)n1 (stereo not shown) [Compound C126, 3-(4-(5-(4-(1-(4-((5-chloro-4-((2-(dimethylphosphoryl)phenyl)amino)pyrimidin-2-yl)amino)-3-methoxyphenyl)piperidin-4-yl)piperazin-1-yl)pent-1-yn-1-yl)-1-oxoisoindolin-2-yl)piperidine-2,6-dione]
2 | 1 to 100 | COc1cc(N2CCC(N3CCNCC3)CC2)c(C)cc1Nc1ncc(Br)c(Nc2ccc3nccnc3c2P(C)(C)=O)n1 [Compound C158-1]
3 | 1 to 100 | COc1cc(N2CCC(N3CCN(CCCCCCCCC#Cc4cccc5c4CN(C4CCC(=O)NC4=O)C5=O)CC3)CC2)ccc1Nc1ncc(Cl)c(Nc2ccccc2P(C)(C)=O)n1 (stereo not shown) [Compound C179, 3-(4-(10-(4-(1-(4-((5-chloro-4-((2-(dimethylphosphoryl)phenyl)amino)pyrimidin-2-yl)amino)-3-methoxyphenyl)piperidin-4-yl)piperazin-1-yl)dec-1-yn-1-yl)-1-oxoisoindolin-2-yl)piperidine-2,6-dione]
4 | 1 to 100 | COc1cc(N2CCC3(CCN(CCCCCC#Cc4cc(F)cc5c4CN(C4CCC(=O)NC4=O)C5=O)CC3)CC2)c(C)cc1Nc1ncc(Br)c(Nc2ccc3nccnc3c2P(C)(C)=O)n1 (stereo not shown) [Compound C185, 3-(4-(7-(9-(4-((5-bromo-4-((5-(dimethylphosphoryl)quinoxalin-6-yl)amino)pyrimidin-2-yl)amino)-5-methoxy-2-methylphenyl)-3,9-diazaspiro[5.5]undecan-3-yl)hept-1-yn-1-yl)-6-fluoro-1-oxoisoindolin-2-yl)piperidine-2,6-dione]
5 | 101 to 200 | COc1cc(N2CCC(N3CCN(CCOCC#Cc4cc(C(F)(F)F)cc5c4CN(C4CCC(=O)NC4=O)C5=O)CC3)CC2)ccc1Nc1ncc(Cl)c(Nc2ccccc2P(C)(C)=O)n1 (stereo not shown) [Compound C200, 3-(4-(3-(2-(4-(1-(4-((5-chloro-4-((2-(dimethylphosphoryl)phenyl)amino)pyrimidin-2-yl)amino)-3-methoxyphenyl)piperidin-4-yl)piperazin-1-yl)ethoxy)prop-1-yn-1-yl)-1-oxo-6-(trifluoromethyl)isoindolin-2-yl)piperidine-2,6-dione]
6 | 1 to 100 | COc1cc(N2CCC(N3CCN(CCCCCC#Cc4cc(Cl)cc5c4CN(C4CCC(=O)NC4=O)C5=O)CC3)CC2)ccc1Nc1ncc(Cl)c(Nc2ccccc2P(C)(C)=O)n1 (stereo not shown) [Compound C202, 3-(6-chloro-4-(7-(4-(1-(4-((5-chloro-4-((2-(dimethylphosphoryl)phenyl)amino)pyrimidin-2-yl)amino)-3-methoxyphenyl)piperidin-4-yl)piperazin-1-yl)hept-1-yn-1-yl)-1-oxoisoindolin-2-yl)piperidine-2,6-dione]
7 | 1 to 100 | COc1cc(N2CCC(N3CCN(CCCCCC#Cc4cc(C#N)cc5c4CN(C4CCC(=O)NC4=O)C5=O)CC3)CC2)ccc1Nc1ncc(Cl)c(Nc2ccccc2P(C)(C)=O)n1 (stereo not shown) [Compound C204, 7-(7-(4-(1-(4-((5-chloro-4-((2-(dimethylphosphoryl)phenyl)amino)pyrimidin-2-yl)amino)-3-methoxyphenyl)piperidin-4-yl)piperazin-1-yl)hept-1-yn-1-yl)-2-(2,6-dioxopiperidin-3-yl)-3-oxoisoindoline-5-carbonitrile]
8 | 1 to 100 | COc1cc(N2CCC3(CCN(CCCCCCOc4cccc5c4CN(C4CCC(=O)NC4=O)C5=O)CC3)CC2)c(C)cc1Nc1ncc(Br)c(Nc2ccc3nccnc3c2P(C)(C)=O)n1 (stereo not shown) [Compound C212, 3-(4-((6-(9-(4-((5-bromo-4-((5-(dimethylphosphoryl)quinoxalin-6-yl)amino)pyrimidin-2-yl)amino)-5-methoxy-2-methylphenyl)-3,9-diazaspiro[5.5]undecan-3-yl)hexyl)oxy)-1-oxoisoindolin-2-yl)piperidine-2,6-dione]
9 | 1 to 100 | COc1cc(N2CCC(N3CCN(CCCC#Cc4ccc5c(c4)CN(C4CCC(=O)NC4=O)C5=O)CC3)CC2)ccc1Nc1ncc(Cl)c(Nc2ccccc2P(C)(C)=O)n1 (stereo not shown) [Compound C218, 3-(5-(5-(4-(1-(4-((5-chloro-4-((2-(dimethylphosphoryl)phenyl)amino)pyrimidin-2-yl)amino)-3-methoxyphenyl)piperidin-4-yl)piperazin-1-yl)pent-1-yn-1-yl)-1-oxoisoindolin-2-yl)piperidine-2,6-dione]
10 | 1 to 100 | COc1cc(N2CCC(N3CCN(CCCC#Cc4cccc5c4CN(C4CCC(=O)NC4=O)C5=O)CC3)CC2)c(C)cc1Nc1ncc(Br)c(Nc2ccc3nccnc3c2P(C)(C)=O)n1 (stereo not shown) [Compound C227, 3-(4-(5-(4-(1-(4-((5-bromo-4-((5-(dimethylphosphoryl)quinoxalin-6-yl)amino)pyrimidin-2-yl)amino)-5-methoxy-2-methylphenyl)piperidin-4-yl)piperazin-1-yl)pent-1-yn-1-yl)-1-oxoisoindolin-2-yl)piperidine-2,6-dione]
11 | 1 to 100 | COc1cc(N2CCC3(CCN(CCCC#Cc4cccc5c4CN(C4CCC(=O)NC4=O)C5=O)CC3)CC2)c(C)cc1Nc1ncc(Br)c(Nc2ccc3nccnc3c2P(C)(C)=O)n1 (stereo not shown) [Compound C228, 3-(4-(5-(9-(4-((5-bromo-4-((5-(dimethylphosphoryl)quinoxalin-6-yl)amino)pyrimidin-2-yl)amino)-5-methoxy-2-methylphenyl)-3,9-diazaspiro[5.5]undecan-3-yl)pent-1-yn-1-yl)-1-oxoisoindolin-2-yl)piperidine-2,6-dione]
12 | 1 to 100 | COc1cc(N2CCC(N3CCN(CCCCCC#Cc4cc(C#N)cc5c4CN(C4CCC(=O)NC4=O)C5=O)CC3)CC2)c(C)cc1Nc1ncc(Br)c(Nc2ccc3nccnc3c2P(C)(C)=O)n1 (stereo not shown) [Compound C229, 7-(7-(4-(1-(4-((5-bromo-4-((5-(dimethylphosphoryl)quinoxalin-6-yl)amino)pyrimidin-2-yl)amino)-5-methoxy-2-methylphenyl)piperidin-4-yl)piperazin-1-yl)hept-1-yn-1-yl)-2-(2,6-dioxopiperidin-3-yl)-3-oxoisoindoline-5-carbonitrile]
13 | 1 to 100 | COc1cc(N2CCC(N3CCN(CCCCc4ccc(-c5ccc6c(c5)CN(C5CCC(=O)NC5=O)C6=O)cc4)CC3)CC2)ccc1Nc1ncc(Cl)c(Nc2ccccc2P(C)(C)=O)n1 (stereo not shown) [Compound C236, 3-(5-(4-(4-(4-(1-(4-((5-chloro-4-((2-(dimethylphosphoryl)phenyl)amino)pyrimidin-2-yl)amino)-3-methoxyphenyl)piperidin-4-yl)piperazin-1-yl)butyl)phenyl)-1-oxoisoindolin-2-yl)piperidine-2,6-dione]
14 | 1 to 100 | COc1cc(N2CCC(N3CCN(CCCCCCc4cccc5c4CN(C4CCC(=O)NC4=O)C5=O)CC3)CC2)ccc1Nc1ncc(Cl)c(Nc2ccccc2P(C)(C)=O)n1 (stereo not shown) [Compound C238, 3-(4-(6-(4-(1-(4-((5-chloro-4-((2-(dimethylphosphoryl)phenyl)amino)pyrimidin-2-yl)amino)-3-methoxyphenyl)piperidin-4-yl)piperazin-1-yl)hexyl)-1-oxoisoindolin-2-yl)piperidine-2,6-dione]
15 | 1 to 100 | COc1cc(N2CCC(N3CCN(CCCCCCCCc4cccc5c4CN(C4CCC(=O)NC4=O)C5=O)CC3)CC2)ccc1Nc1ncc(Cl)c(Nc2ccccc2P(C)(C)=O)n1 (stereo not shown) [Compound C240, 3-(4-(8-(4-(1-(4-((5-chloro-4-((2-(dimethylphosphoryl)phenyl)amino)pyrimidin-2-yl)amino)-3-methoxyphenyl)piperidin-4-yl)piperazin-1-yl)octyl)-1-oxoisoindolin-2-yl)piperidine-2,6-dione]
16 | 1 to 100 | COc1cc(N2CCC(N3CCN(CCCCCC#Cc4ccc(F)c5c4CN(C4CCC(=O)NC4=O)C5=O)CC3)CC2)ccc1Nc1ncc(Cl)c(Nc2ccccc2P(C)(C)=O)n1 (stereo not shown) [Compound C243, 3-(4-(7-(4-(1-(4-((5-chloro-4-((2-(dimethylphosphoryl)phenyl)amino)pyrimidin-2-yl)amino)-3-methoxyphenyl)piperidin-4-yl)piperazin-1-yl)hept-1-yn-1-yl)-7-fluoro-1-oxoisoindolin-2-yl)piperidine-2,6-dione]
17 | 1 to 100 | COc1cc(N2CCC(N3CCN(CCCCCCCc4cccc5c4CN(C4CCC(=O)NC4=O)C5=O)CC3)CC2)ccc1Nc1ncc(Cl)c(Nc2ccccc2P(C)(C)=O)n1 (stereo not shown) [Compound C245, 3-(4-(7-(4-(1-(4-((5-chloro-4-((2-(dimethylphosphoryl)phenyl)amino)pyrimidin-2-yl)amino)-3-methoxyphenyl)piperidin-4-yl)piperazin-1-yl)heptyl)-1-oxoisoindolin-2-yl)piperidine-2,6-dione]
18 | 1 to 100 | COc1cc(N2CCC(N3CCN(CCCC#Cc4cc(C#N)cc5c4CN(C4CCC(=O)NC4=O)C5=O)CC3)CC2)ccc1Nc1ncc(Cl)c(Nc2ccccc2P(C)(C)=O)n1 (stereo not shown) [Compound C258, 7-(5-(4-(1-(4-((5-chloro-4-((2-(dimethylphosphoryl)phenyl)amino)pyrimidin-2-yl)amino)-3-methoxyphenyl)piperidin-4-yl)piperazin-1-yl)pent-1-yn-1-yl)-2-(2,6-dioxopiperidin-3-yl)-3-oxoisoindoline-5-carbonitrile]
19 | 1 to 100 | COc1cc(N2CCC(N3CCN(CCCCC#Cc4cc(C#N)cc5c4CN(C4CCC(=O)NC4=O)C5=O)CC3)CC2)ccc1Nc1ncc(Cl)c(Nc2ccccc2P(C)(C)=O)n1 (stereo not shown) [Compound C259, 7-(6-(4-(1-(4-((5-chloro-4-((2-(dimethylphosphoryl)phenyl)amino)pyrimidin-2-yl)amino)-3-methoxyphenyl)piperidin-4-yl)piperazin-1-yl)hex-1-yn-1-yl)-2-(2,6-dioxopiperidin-3-yl)-3-oxoisoindoline-5-carbonitrile]
